In ChEMBL document CHEMBL4002605, “Synthesis, identification and in vitro biological evaluation of some novel quinoline incorporated 1,3-thiazinan-4-one derivatives” (Bioorg Med Chem Lett, 2017):
Converted amounts (≈) assume the structure as drawn.

How the values were obtained:
Vibrio cholerae = assay: Antibacterial activity against Vibrio cholerae MTCC 3906 by broth microdilution assay method; format: functional
Salmonella typhi = assay: Antibacterial activity against Salmonella typhi MTCC 98 by broth microdilution assay method; format: functional, Salmonella enterica subsp. enterica serovar Typhi; settings: Salmonella enterica
[1] = tested on: Mycobacterium tuberculosis; assay: Antitubercular activity against Mycobacterium tuberculosis H37Rv at 6 ug/mL; format: functional
Clostridium tetani = assay: Antibacterial activity against Clostridium tetani MTCC 449 by broth microdilution assay method; format: functional
Plasmodium falciparum = assay: Antimalarial activity against Plasmodium falciparum; format: functional
Streptococcus pneumoniae = assay: Antibacterial activity against Streptococcus pneumoniae MTCC 1936 by broth microdilution assay method; format: functional
Escherichia coli = assay: Antibacterial activity against Escherichia coli MTCC 443 by broth microdilution assay method; format: functional
Bacillus subtilis = assay: Antibacterial activity against Bacillus subtilis MTCC 441 by broth microdilution assay method; format: functional

| Compound | MIC (Vibrio cholerae) | MIC (Salmonella typhi) | inhibition at 6 µg/mL [1] | MIC (Clostridium tetani) | IC50 (Plasmodium falciparum) | MIC (Streptococcus pneumoniae) | MIC (Escherichia coli) | MIC (Bacillus subtilis) |
| --- | --- | --- | --- | --- | --- | --- | --- | --- |
| O=C1CCSC(c2ccc(Cl)cc2)N1CCNc1ccnc2cc(Cl)ccc12 (centres undefined) | 125 µg/mL (≈ 289 µM) | 250 µg/mL (≈ 578 µM) | 73% | 62.5 µg/mL (≈ 145 µM) | 0.098 µg/mL (≈ 0.227 µM) | 125 µg/mL (≈ 289 µM) | 125 µg/mL (≈ 289 µM) | 62.5 µg/mL (≈ 145 µM) |
| O=C1CCSC(c2cccc(Cl)c2)N1CCCCNc1ccnc2cc(Cl)ccc12 (centres undefined) | 125 µg/mL (≈ 271 µM) | 125 µg/mL (≈ 271 µM) | 49% | 250 µg/mL (≈ 543 µM) | 1.93 µg/mL (≈ 4.19 µM) | 250 µg/mL (≈ 543 µM) | 250 µg/mL (≈ 543 µM) | 250 µg/mL (≈ 543 µM) |
| O=C1CCSC(c2ccc(F)cc2)N1CCNc1ccnc2cc(Cl)ccc12 (centres undefined) | 125 µg/mL (≈ 301 µM) | 62.5 µg/mL (≈ 150 µM) | 80% | 15.6 µg/mL (≈ 37.5 µM) | 0.081 µg/mL (≈ 0.195 µM) | 62.5 µg/mL (≈ 150 µM) | 62.5 µg/mL (≈ 150 µM) | 62.5 µg/mL (≈ 150 µM) |
| O=C1CCSC(c2ccccc2)N1CCNc1ccnc2cc(Cl)ccc12 (centres undefined) | 250 µg/mL (≈ 628 µM) | 500 µg/mL (≈ 1260 µM) | 50% | 250 µg/mL (≈ 628 µM) | 2.7 µg/mL (≈ 6.79 µM) | 500 µg/mL (≈ 1260 µM) | 500 µg/mL (≈ 1260 µM) | 250 µg/mL (≈ 628 µM) |
| O=C(NN1C(=O)CCSC1c1cccc(F)c1)c1cnc2c(C(F)(F)F)cccc2c1O (centres undefined) | 125 µg/mL (≈ 269 µM) | 250 µg/mL (≈ 537 µM) | 73% | 125 µg/mL (≈ 269 µM) | 0.91 µg/mL (≈ 1.96 µM) | 250 µg/mL (≈ 537 µM) | 125 µg/mL (≈ 269 µM) | 125 µg/mL (≈ 269 µM) |
| O=C1CCSC(c2ccc(F)cc2)N1CCCNc1ccnc2cc(Cl)ccc12 (centres undefined) | 100 µg/mL (≈ 233 µM) | 125 µg/mL (≈ 291 µM) | 78% | 100 µg/mL (≈ 233 µM) | 0.089 µg/mL (≈ 0.207 µM) | 31.2 µg/mL (≈ 72.7 µM) | 62.5 µg/mL (≈ 145 µM) | 62.5 µg/mL (≈ 145 µM) |
| O=C(NN1C(=O)CCSC1c1ccc(F)cc1)c1cnc2c(C(F)(F)F)cccc2c1O (centres undefined) | 125 µg/mL (≈ 269 µM) | 250 µg/mL (≈ 537 µM) | 92% | 15.6 µg/mL (≈ 33.5 µM) | 0.052 µg/mL (≈ 0.112 µM) | 125 µg/mL (≈ 269 µM) | 125 µg/mL (≈ 269 µM) | 31.2 µg/mL (≈ 67.1 µM) |
| O=C1CCSC(c2ccc(O)cc2)N1CCCNc1ccnc2cc(Cl)ccc12 (centres undefined) | 250 µg/mL (≈ 584 µM) | 62.5 µg/mL (≈ 146 µM) | 42% | 250 µg/mL (≈ 584 µM) | 1.14 µg/mL (≈ 2.66 µM) | 125 µg/mL (≈ 292 µM) | 250 µg/mL (≈ 584 µM) | 250 µg/mL (≈ 584 µM) |
